Measured values from ChEMBL document CHEMBL1909545, “Synthesis, biological assay in vitro and molecular docking studies of new Schiff base derivatives as potential urease inhibitors” (Eur J Med Chem, 2011).
pIC50, pKi: −log10 of the molar value. Calls of active or inactive are those of the source. The calls are words filed in the database; no cut-off is given here.

Each compound was assayed against Urease (Canavalia ensiformis) (UniProt P07374). Details: 0.01 to 0.001 uM.
Chain of Urease (Canavalia ensiformis) (P07374 whole entry, looked up): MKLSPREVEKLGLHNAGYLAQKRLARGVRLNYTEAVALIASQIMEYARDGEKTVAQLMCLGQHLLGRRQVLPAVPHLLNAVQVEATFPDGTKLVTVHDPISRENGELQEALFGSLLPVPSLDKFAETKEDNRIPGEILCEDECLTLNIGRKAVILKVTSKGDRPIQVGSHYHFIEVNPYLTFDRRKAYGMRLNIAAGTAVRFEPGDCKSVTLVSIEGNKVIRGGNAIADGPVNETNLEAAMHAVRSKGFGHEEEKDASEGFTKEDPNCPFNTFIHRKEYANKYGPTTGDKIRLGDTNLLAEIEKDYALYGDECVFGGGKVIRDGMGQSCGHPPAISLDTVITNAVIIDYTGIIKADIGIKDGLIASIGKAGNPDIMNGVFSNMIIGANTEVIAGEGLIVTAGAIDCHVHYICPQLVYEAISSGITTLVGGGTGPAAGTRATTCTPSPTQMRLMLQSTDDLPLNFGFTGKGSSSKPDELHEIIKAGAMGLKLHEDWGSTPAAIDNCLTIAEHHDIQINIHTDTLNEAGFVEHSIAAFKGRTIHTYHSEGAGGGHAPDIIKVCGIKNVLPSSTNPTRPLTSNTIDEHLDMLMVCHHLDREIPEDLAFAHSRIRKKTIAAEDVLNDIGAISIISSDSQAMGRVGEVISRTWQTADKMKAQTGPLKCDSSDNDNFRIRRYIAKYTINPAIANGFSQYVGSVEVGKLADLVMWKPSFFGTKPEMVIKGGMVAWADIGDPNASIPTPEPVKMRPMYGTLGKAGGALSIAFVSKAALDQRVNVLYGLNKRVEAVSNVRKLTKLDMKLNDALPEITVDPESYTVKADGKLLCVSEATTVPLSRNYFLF

`N/C(S)=N/N=C/c1cccc([N+](=O)[O-])c1` was tested, and the inhibition was “Active”.

These compounds were tested against Urease (Canavalia ensiformis, UniProt P07374) (assay: Inhibition of jack bean urease assessed as ammonia production after 30 mins by indophenol method). Details: not given.
Chain of Urease (P07374 whole entry): as the sequence (P07374 whole entry, looked up) above

Compared with `COc1cc(/C=N/NC(N)=S)cc(OC)c1OC`, `COc1cc(/C=N/NC(N)=S)cc(OC)c1O` is 0.63 log units higher in pIC50: 6.00 for the first, 6.63 for the second.

First: NC(=S)N/N=C/c1ccc(Cl)cc1
Second: NC(=S)N/N=C/c1ccc(Br)cc1
The pIC50 of the first is 0.24 log units higher: 6.39 for the first, 6.15 for the second.

First: C/C=C/C=N/NC(N)=S
Second: NC(=S)N/N=C/C=C/c1ccccc1
The pIC50 of the first is 0.21 log units lower: 6.13 for the first, 6.34 for the second.

`NC(=S)N/N=C/c1ccccc1OCc1ccccc1` and `COc1ccc(/C=N/NC(N)=S)cc1OCc1ccccc1` are within 0.2 log units of each other in pIC50: 6.58 for the first, 6.48 for the second.

Going from `COc1cccc(/C=N/NC(N)=S)c1` to `NC(=S)N/N=C/c1cccc(Cl)c1`, the pIC50 falls from 6.75 to 6.17 (0.58 log units). The first is the more potent here.

Going from `N/C(S)=N/N=C/c1cccc([N+](=O)[O-])c1` to `N/C(S)=N/N=C/c1ccc([N+](=O)[O-])cc1`, the pIC50 falls from 6.99 to 6.26 (0.73 log units).

`N/C(S)=N/N=C/c1cccc(Br)c1` and `NC(=S)N/N=C/c1ccc(O)cc1` are within 0.2 log units of each other in pIC50: 6.12 for the first, 6.17 for the second.

Compared with `CN(C)c1ccc(/C=N/NC(N)=S)cc1`, `COc1ccc(/C=N/NC(N)=S)cc1` is 0.85 log units lower in pIC50: 6.90 for the first, 6.05 for the second. The first is the more potent here.

`NC(=S)N/N=C/c1cccc(O)c1O` and `NC(=S)N/N=C/c1ccccc1Cl` are within 0.2 log units of each other in pIC50: 6.66 for the first, 6.67 for the second.

Going from `COc1cc(/C=N/NC(N)=S)cc(OC)c1OC` to `COc1cc(/C=N/NC(N)=S)cc(OC)c1O`, the pKi rises from 6.04 to 6.87 (0.83 log units). The second binds more tightly here.

Going from `NC(=S)N/N=C/c1ccc(Cl)cc1` to `NC(=S)N/N=C/c1ccc(Br)cc1`, the pKi falls from 6.40 to 6.11 (0.29 log units). The first binds more tightly here.

`C/C=C/C=N/NC(N)=S` and `NC(=S)N/N=C/C=C/c1ccccc1` are within 0.2 log units of each other in pKi: 6.37 for the first, 6.39 for the second.

`NC(=S)N/N=C/c1ccccc1OCc1ccccc1` and `COc1ccc(/C=N/NC(N)=S)cc1OCc1ccccc1` are within 0.2 log units of each other in pKi: 6.82 for the first, 6.72 for the second.

Compared with `COc1cccc(/C=N/NC(N)=S)c1`, `NC(=S)N/N=C/c1cccc(Cl)c1` is 0.70 log units lower in pKi: 6.90 for the first, 6.20 for the second. The first binds more tightly here.

Compared with `N/C(S)=N/N=C/c1cccc([N+](=O)[O-])c1`, `N/C(S)=N/N=C/c1ccc([N+](=O)[O-])cc1` is 0.75 log units lower in pKi: 7.05 for the first, 6.30 for the second.

Compared with `NC(N)=S` [THIOUREA], `NC(=S)N/N=C/c1ccc(O)cc1` is 1.70 log units higher in pKi: 4.71 for the first, 6.41 for the second.

Going from `N/C(S)=N/N=C/c1cccc(Br)c1` to `NC(=S)N/N=C/c1ccccc1Cl`, the pKi rises from 6.17 to 6.77 (0.60 log units). The second binds more tightly here.

Compared with `CN(C)c1ccc(/C=N/NC(N)=S)cc1`, `COc1ccc(/C=N/NC(N)=S)cc1` is 0.82 log units lower in pKi: 6.91 for the first, 6.09 for the second. The first binds more tightly here.

For `NC(=S)N/N=C/c1cccc(O)c1O`, the pKi was 6.90.
